Consider ten molecules from BindingDB's records for PubMed 9400006 (Emory University, 1997).

As a reminder, the Ki is the equilibrium dissociation constant of an inhibitor or competing ligand from its target. The low end stands for tighter binding, the high end for weaker binding.

Assay [1] concerns the target T1, 5-hydroxytryptamine receptor 1A (Rattus norvegicus, UniProt P19327).
T1 sequence (P19327 whole entry): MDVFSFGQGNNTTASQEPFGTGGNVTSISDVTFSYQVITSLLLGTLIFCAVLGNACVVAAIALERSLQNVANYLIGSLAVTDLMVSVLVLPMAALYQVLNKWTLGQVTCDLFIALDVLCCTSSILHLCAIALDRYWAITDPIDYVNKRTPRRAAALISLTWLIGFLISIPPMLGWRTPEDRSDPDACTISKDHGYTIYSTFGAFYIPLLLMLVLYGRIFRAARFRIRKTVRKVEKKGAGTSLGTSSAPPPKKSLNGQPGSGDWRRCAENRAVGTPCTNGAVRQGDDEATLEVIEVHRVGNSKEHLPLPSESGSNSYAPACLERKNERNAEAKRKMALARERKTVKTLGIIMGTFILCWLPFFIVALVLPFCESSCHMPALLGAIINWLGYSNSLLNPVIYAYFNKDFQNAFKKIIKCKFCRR

Assay [2] concerns the target T2, Alpha-2A adrenergic receptor (Homo sapiens, UniProt P08913).
T2 sequence (P08913 whole entry): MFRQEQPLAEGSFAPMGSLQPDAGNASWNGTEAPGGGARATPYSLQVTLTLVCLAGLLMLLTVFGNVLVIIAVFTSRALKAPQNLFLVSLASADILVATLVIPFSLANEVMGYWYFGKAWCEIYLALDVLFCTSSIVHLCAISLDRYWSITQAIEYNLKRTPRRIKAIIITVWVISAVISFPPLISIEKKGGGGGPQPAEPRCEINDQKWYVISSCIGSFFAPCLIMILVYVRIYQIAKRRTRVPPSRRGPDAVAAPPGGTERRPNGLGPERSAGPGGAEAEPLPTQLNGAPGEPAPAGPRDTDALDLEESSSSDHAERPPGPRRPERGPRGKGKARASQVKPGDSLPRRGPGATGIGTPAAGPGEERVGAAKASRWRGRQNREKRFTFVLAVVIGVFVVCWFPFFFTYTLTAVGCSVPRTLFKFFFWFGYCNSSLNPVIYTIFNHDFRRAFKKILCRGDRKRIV

The target in assay [3] is T3, Muscarinic acetylcholine receptor M2 (Rattus norvegicus, UniProt P10980).
T3 sequence (P10980 whole entry): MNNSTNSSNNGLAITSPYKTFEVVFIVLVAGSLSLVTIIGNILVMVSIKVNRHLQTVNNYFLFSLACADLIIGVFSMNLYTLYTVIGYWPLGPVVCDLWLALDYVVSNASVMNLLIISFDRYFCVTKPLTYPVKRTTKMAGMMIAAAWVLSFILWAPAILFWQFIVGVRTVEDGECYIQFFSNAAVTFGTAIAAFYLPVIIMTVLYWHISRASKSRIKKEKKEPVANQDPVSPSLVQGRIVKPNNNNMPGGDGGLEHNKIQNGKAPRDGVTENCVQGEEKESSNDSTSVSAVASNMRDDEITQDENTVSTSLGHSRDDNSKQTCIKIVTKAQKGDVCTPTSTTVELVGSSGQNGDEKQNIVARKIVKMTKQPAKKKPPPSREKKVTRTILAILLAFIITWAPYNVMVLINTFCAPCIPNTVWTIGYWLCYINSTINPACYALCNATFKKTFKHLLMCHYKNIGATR

The target in assay [4] is Sodium-dependent serotonin transporter (Rattus norvegicus, UniProt P31652).
Chain of Sodium-dependent serotonin transporter (P31652 whole entry): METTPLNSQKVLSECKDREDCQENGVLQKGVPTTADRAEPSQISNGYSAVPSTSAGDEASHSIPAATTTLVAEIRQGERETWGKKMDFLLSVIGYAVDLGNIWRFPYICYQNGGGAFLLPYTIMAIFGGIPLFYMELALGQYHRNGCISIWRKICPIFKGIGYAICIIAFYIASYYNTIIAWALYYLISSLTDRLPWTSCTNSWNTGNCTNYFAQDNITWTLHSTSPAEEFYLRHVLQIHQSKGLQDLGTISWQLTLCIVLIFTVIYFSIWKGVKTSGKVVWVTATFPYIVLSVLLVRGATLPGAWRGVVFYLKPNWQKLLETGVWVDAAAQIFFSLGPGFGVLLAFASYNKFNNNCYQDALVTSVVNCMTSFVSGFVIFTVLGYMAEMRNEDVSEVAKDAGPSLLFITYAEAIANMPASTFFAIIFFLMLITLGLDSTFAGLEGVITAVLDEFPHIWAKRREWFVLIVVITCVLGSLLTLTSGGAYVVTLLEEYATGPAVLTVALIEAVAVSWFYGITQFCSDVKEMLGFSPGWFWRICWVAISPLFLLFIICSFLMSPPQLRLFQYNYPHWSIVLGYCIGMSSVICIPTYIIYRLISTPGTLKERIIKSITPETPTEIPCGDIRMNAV

Consider `CN(C)CCC=C1c2ccccc2CCc2ccccc21`, for which the Ki in assay [1] came to 129 nM; in assay [2], 114 nM; in assay [3] it was 2.6 nM.
As for `CCc1nn(CCCN2CCN(c3cccc(Cl)c3)CC2)c(=O)n1CCOc1ccccc1` [2-{3-[4-(3-chlorophenyl)piperazin-1-yl]propyl}-5-ethyl-4-(2-phenoxyethyl)-2,4-dihydro-3H-1,2,4-triazol-3-one], the figures for the inhibition constant (Ki) in assay [1] and in assay [3] were 52 nM and 4570 nM, respectively.
`O=c1n(CCCN2CCN(c3cccc(Cl)c3)CC2)nc2ccccn12` [2-{3-[4-(3-chlorophenyl)piperazin-1-yl]propyl}[1,2,4]triazolo[4,3-a]pyridin-3(2H)-one] returned an inhibition constant Ki in assay [3] of more than 10000 nM.
In the case of `CNCCCN1c2ccccc2CCc2ccccc21` [Desmethylimipramine], in assay [3], affinity was put at a Ki of 37 nM.
For the molecule `COc1ccc(C(CN(C)C)C2(O)CCCCC2)cc1` (stereo unspecified) [NSC_62923], the Ki in assay [1], in assay [2] and in assay [3] was more than 10000 nM in each case.
Take `CC(O)c1nn(CCCN2CCN(c3ccc(Cl)cc3)CC2)c(=O)n1CCOc1ccccc1` (stereo unspecified) [NSC_127096]: the Ki in assay [1] is 56 nM; in assay [4] it was 612 nM; in assay [2], 63 nM; in assay [3] it was more than 10000 nM.
With `Fc1ccc([C@@H]2CCNC[C@H]2COc2ccc3c(c2)OCO3)cc1` [PAROXETINE], the Ki in assay [1] is more than 10000 nM; in assay [3], 42 nM.
In the case of `O=c1[nH]n(CCCN2CCN(c3cccc(Cl)c3)CC2)c(=O)n1CCOc1ccccc1` [Triazoledione], the inhibition constant Ki in assay [1] was 1370 nM; in assay [4], more than 10000 nM; in assay [2] it was 1920 nM; in assay [3] it was more than 10000 nM.
`CN[C@@H]1CC[C@@H](c2ccc(Cl)c(Cl)c2)c2ccccc21` [[4-(3,4-Dichloro-phenyl)-1,2,3,4-tetrahydro-naphthalen-1-yl]-methyl-amine]: the values for the Ki in assay [1] and in assay [3] were 3660 nM and 232 nM, respectively.
For the molecule `Clc1cccc(N2CCNCC2)c1` [mCPP], the inhibitory constant (Ki) in assay [1] worked out at 16 nM; in assay [4], 218 nM; in assay [2], 112 nM; in assay [3], 4700 nM.
